Test results from patent publication US11136561B2, “Polypeptide for the enzymatic detoxification of zearalenone, isolated polynucleotide, and associated additive, use and method” (priority 2014, dated 2021).

B1: polypeptide of SEQ ID No. 1: monooxygenase converting the keto group in position 7 of zearalenone into an ester group (protein)
chain: MTLEAIPVPEETPAQTVPTAPLSEEEREALKHRYRAERDKRIREDGIKQYRSLEGLLDVDDTKDPYTPVKPREPLNDHVDFLFLGGGFAGLIVCSHLKKTGFNDFRIIESGGDFGGVWYWNRFPGAMCDTAAMVYLPLLEETGTVPSAKYVRGPEILAHAQRIARTFDLYPHALFHTHLESLTWDEEQGVWKVKTRQGDSFTATHVGMGTGPLNKPHLPGIPGIEKFKGKAMHTARWDFATTGGGWNGEVMEGLKDKRVGVIGTGATGIQAIPELGRDSGELFVFQRTPSAVAVRGNHPIDPEWFASLDKGWQTKWNRNFIQLMSSGMAENDYVRDGWTDGVKRITARMFAEAAKAGRDPSTLSFDDFLAAYHLSDDEYMTAVRNRTNEVVNDPKTADGLKAWYRQFCKRPCFHDEFLATFNRPTVHLVDTNGQGVTEVDETGVWANGQHYDLDIIVYATGFEFNSEWTYKSGMEVYGRDGLTLTQAWKDGMKTYHGMHINGFPNLFMLQFQQGSSLASNITSNYVDSGYTIAAILNKKKELGAKTVEVPADVQSKWIEHLLTANKGLIGGPECTPGYYNNEGQEEGLKEKLNGARYPAGSLAFFDYIAEWRTNGKFEGLAFDGKQIAVQ
modifications: Trichosporon mycotoxinivorans
notes: monooxygenase converting the keto group in position 7 of zearalenone into an ester group

Key:
bovine = conditions: cited from earlier work
[1] = cited from earlier work
[2] = extrusion and oxidants, e.g. 16 hours at 80° C. with 10% hydrogen peroxide solution; cited from earlier work
[3] = target: T1, fusion protein containing the hormone-dependent activation domain of the human estrogen receptor alpha and the DNA binding domain of the yeast Gal4 protein (Homo sapiens, UniProt P03372); type: cell-based; conditions: for Concentration necessary to express 7.5 relative units of beta-galactosidase: GAL7-lacZ reporter, 18 hours at 30° C.
T1 construct: expressed in transfected cells; host or cells: Saccharomyces cerevisiae YZHB817 (PJ69-4a derivative, pdr5 snq2) carrying expression vector pTK103
T1 sequence (P03372 311-595 limits assumed): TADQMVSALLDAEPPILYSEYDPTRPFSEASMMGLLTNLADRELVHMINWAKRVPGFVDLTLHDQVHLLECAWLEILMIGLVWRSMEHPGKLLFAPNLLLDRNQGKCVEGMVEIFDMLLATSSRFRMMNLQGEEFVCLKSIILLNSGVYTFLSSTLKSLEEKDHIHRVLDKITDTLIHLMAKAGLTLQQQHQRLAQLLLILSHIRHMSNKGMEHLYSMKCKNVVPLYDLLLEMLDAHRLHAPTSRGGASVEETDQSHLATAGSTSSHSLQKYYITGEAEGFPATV
Text: The purified metabolite iZOM as described in Example 2 was used to determine its toxicity, expressed by its estrogenic activity, and compared to that of zearalenone.
For measuring the estrogenic activity, a specially prepared reporter yeast strain, YZHB817 (Bachmann, H.: Phenotypic detection of zearalenone in Saccharomyces cerevisiae. Master thesis BOKU Vienna, 2003) was used. This strain is derived from yeast-two hybrid strain PJ69-4a (MATa trp1-901 leu2-3,112 ura3-52 his3-200 gal4-(deleted) gal80(deleted) LYS2::GAL1-HIS3 GAL2-ADE2 met2::GAL7-lacZ) (James et al. 1996, Genetics; 144(4), 1425-1436). PJ69-4a was further developed by the disruption of the ABC transporters PDR5 and SNQ2. […] This strain was subsequently transformed with an expression vector (pTK103) that triggers the production of a fusion protein containing the hormone-dependent activation domain of the human estrogen receptor alpha and the DNA binding domain of the yeast Gal4 protein, in order to obtain the strain YZHB817.
In the presence of estrogenic substances, the yeast strain YZHB817 induces the expression of the GAL7 lacZ reporter gene, whose product, the enzyme beta-galactosidase, is easy to measure by the hydrolyzation of the chromogenic substrate ONPG (ortho-nitrophenyl-beta-galactoside) at 420 nm (Current Protocols in Molecular Biology, Chapter 13, Yeast (Eds. Lundblad V, Struhl, K.)).
[…] of the estrogenic test solution (ZEN or iZOM) were dissolved in 50% ethanol, mixed with 1.9 ml of the yeast culture of strain […] in SC-TRP medium at a cell density of OD600=0.1, and incubated for 18 hours at 30° C. and 180 rpm. After this, the OD600 of the culture was determined, and the cell pellet (10 min, 13 krpm) of 1 ml was resuspended in […] Z buffer and permeabilized with 25 μl chloroform. […] The supernatant was measured at 420 nm, and the relative units (based on the used cell amount) were calculated as: RU=(OD420×1000)/(OD600×incubation time in min)

mammals = conditions: cited from earlier work
[4] = cited from earlier work; remark: listed apart in the source
pigs = conditions: cited from earlier work
[5] = test system: polypeptide of SEQ ID No. 1; assay: Metabolization of ZEN by yeast strain YZGA515 expressing the polypeptide of SEQ ID No. 1 (test setup), HPLC-MS; type: cell-based, Saccharomyces cerevisiae; conditions: expressed in yeast strain YZGA515
Text: The yeast strain YZGA515 (Saccharomyces cerevisiae modified by inactivation of the ABC transporter gene PDR5 (Poppenberger et al. 2003, J. Biol. Chem., 278 (48) 47905-14) for the enhanced absorption of zearalenone (ZEN)) was transformed by the plasmid pCS57 using standard techniques. pCS57 is a plasmid derived from the yeast expression plasmid pADH-FW (Mitterbauer et. al 2002, Appl. Environ. Microbiol.; 68 (3), 1336-1346) with LEU2 as selection marker and ADH1 promoter.
In the test setup, the yeast strain YZGA515 was transformed with the pCS57 vector additionally containing the polynucleotide of SEQ ID No. 4 as BamHI-Xhol fragment after the strongly constitutive ADH1 promoter (alcohol dehydrogenase 1). This enabled the formation of the polypeptide of SEQ ID No. 1.
The yeast strain YZGA515 with the empty vector (pADH-FW without the polynucleotide of SEQ ID No.4) was transformed as negative control.
The transgenic yeasts (test setup and negative control) were cultivated in SC-LEU medium (Sherman 1991, Methods Enzymol., 194, 3-21), centrifuged and resuspended in fresh SC-LEU medium at a concentration of 2 mg/l ZEN, wherein a cell density of OD600=4 was adjusted in both cases. […]
In a further test setup, the metabolite iZOM was additionally measured quantitatively. […]

| Molecule | ZEN concentration made responsible for miscarriages (bovine) [ppm] | oral LD50 [1] | Reduction of ZEN content [2] [%] | Concentration necessary to express 7.5 relative units of beta-galactosidase [3] | ZEN concentration in feeds leading to development disorders (mammals) | Time after oral administration at which ZEN is detectable in blood [4] [min] | ZEN concentration in feeds that may lead to hyper-estrogenicity (pigs) | Toxicity lower by a factor (than zearalenone) ([3]; toxicity expressed by estrogenic activity) | Conversion of ZEN to iZOM [5] |
| --- | --- | --- | --- | --- | --- | --- | --- | --- | --- |
| C[C@H]1CCCC(=O)CCC/C=C/c2cc(O)cc(O)c2C(=O)O1 [ZEN, (2E,11D)-15,17-dihydroxy-11-methyl-12-oxabicyco[12.4.0]octadeca-1(18), 2,14,16-tetraene-7,13-dione] | 12 | up to 20,000 mg/kg body weight | 83.9 | approximately 45 ppb | above 0.5 ppm | 30 | above 1.5 ppm |  |  |
| CC1CCCC(=O)OCCC/C=C/c2cc(O)cc(O)c2C(=O)O1 (stereo not shown) [iZOM] |  |  |  | about 500 ppb |  |  |  | about 100 |  |
| B1 |  |  |  |  |  |  |  |  | able to convert ZEN to its metabolite iZOM |
